Test results published in ChEMBL document CHEMBL4152250, “Antibacterial and anti-TB tat-peptidomimetics with improved efficacy and half-life” (Eur J Med Chem, 2018).
≈ marks a conversion by molar mass, not a printed value. Numbered stars: 1 amine (or outer) side, 2 acyl side, 3 side chain; on linkers, the order of the positions; unused ones are H or OH. Square brackets hold non-standard residues; d marks the D form. Peptide text beside a SMILES is read from it. Pro(N-(CH2)3Gua,cis-4-NH-) = N=C(N)NCCCN1C[C@@H](N[*:1])C[C@H]1C(=O)[*:2]; Pro(cis-4-guanidino) = NC(N)=N[C@@H]1CN[C@H](C(=O)O)C1; X1 = NCCCN1C[C@@H](N[*:1])C[C@H]1C(=O)[*:2]; Ethylenediamine = C(CN[*:2])N[*:1]; βAla = NCCC(=O)O

Legend:
[1] = tested on: Mycobacterium tuberculosis; experiment: Antitubercular activity against multidrug-resistant active stage of Mycobacterium tuberculosis H37Ra after 8 days by XRMA; assay type: functional, organism-based; conditions: 192 h
[2] = tested on: Mycobacterium tuberculosis; experiment: Antitubercular activity against multidrug-resistant dormant stage of Mycobacterium tuberculosis H37Ra after 12 days by XRMA; assay type: functional, organism-based; conditions: 288 h

CC(=O)N[C@@H](Cc1ccccc1)C(=O)NCC(=O)N[C@@H](CCCNC(=N)N)C(=O)N[C@@H](CCCCN)C(=O)N[C@@H](CCCCN)C(=O)N[C@@H](CCCNC(=N)N)C(=O)N[C@@H](CCCNC(=N)N)C(=O)N[C@@H](CCC(N)=O)C(=O)N[C@@H](CCCNC(=N)N)C(=O)N[C@@H](CCCNC(=N)N)C(=O)N[C@@H](CCCNC(=N)N)C(N)=O
IC50 [1]: > 60 µM
IC50 [2]: 19.2 µM

CC(=O)N[C@@H](Cc1ccccc1)C(=O)NCC(=O)N[C@@H](CCCNC(=N)N)C(=O)N[C@@H](CCCCN)C(=O)N[C@@H](CCCCN)C(=O)N1C[C@@H](NC(=N)N)C[C@H]1C(=O)N[C@@H](CCCNC(=N)N)C(=O)N[C@@H](CCC(N)=O)C(=O)N[C@@H](CCCNC(=N)N)C(=O)N[C@@H](CCCNC(=N)N)C(=O)N[C@@H](CCCNC(=N)N)C(=O)NCCC(N)=O (Ac-FGRKK[Pro(cis-4-guanidino)]RQRRR[βAla]-NH2)
IC50 [1]: 2.68 µM
MIC [1]: 15.1 µM (≈ 25 µg/mL)
IC50 [2]: 3.27 µM
MIC [2]: 14.5 µM (≈ 24 µg/mL)

CC(=O)N[C@@H](Cc1ccccc1)C(=O)NCC(=O)N[C@H]1C[C@@H](C(=O)N[C@@H](CCCCN)C(=O)N[C@@H](CCCCN)C(=O)N[C@@H](CCCNC(=N)N)C(=O)N[C@H]2C[C@@H](C(=O)N[C@@H](CCC(N)=O)C(=O)N[C@@H](CCCNC(=N)N)C(=O)N[C@@H](CCCNC(=N)N)C(=O)N[C@H]3C[C@@H](C(=O)NCCC(N)=O)N(CCCNC(=N)N)C3)N(CCCNC(=N)N)C2)N(CCCNC(=N)N)C1 (Ac-FG[Pro(N-(CH2)3Gua,cis-4-NH-)]KKR[Pro(N-(CH2)3Gua,cis-4-NH-)]QRR[Pro(N-(CH2)3Gua,cis-4-NH-)][βAla]-NH2)
IC50 [1]: 6.4 µM
MIC [1]: 25.3 µM (≈ 46.1 µg/mL)
IC50 [2]: 0.67 µM
MIC [2]: 10.4 µM (≈ 18.9 µg/mL)

CC(=O)N[C@@H](Cc1ccccc1)C(=O)NCC(=O)N[C@@H](CCCNC(=N)N)C(=O)N[C@@H](CCCCN)C(=O)N[C@@H](CCCCN)C(=O)N[C@@H](CCCNC(=N)N)C(=O)N[C@@H](CCCNC(=N)N)C(=O)N[C@@H](CCC(N)=O)C(=O)N[C@@H](CCCNC(=N)N)C(=O)N[C@@H](CCCNC(=N)N)C(=O)N[C@H]1C[C@@H](C(=O)NCCC(N)=O)N(CCCNC(=N)N)C1 (Ac-FGRKKRRQRR[Pro(N-(CH2)3Gua,cis-4-NH-)][βAla]-NH2)
IC50 [1]: 1.85 µM
MIC [1]: 22.1 µM (≈ 37.8 µg/mL)
IC50 [2]: 1.28 µM
MIC [2]: 12 µM (≈ 20.5 µg/mL)

CC(=O)N[C@@H](Cc1ccccc1)C(=O)NCC(=O)N[C@H]1C[C@@H](C(=O)N[C@@H](CCCCN)C(=O)N[C@@H](CCCCN)C(=O)N[C@@H](CCCNC(=N)N)C(=O)N[C@H]2C[C@@H](C(=O)N[C@@H](CCC(N)=O)C(=O)N[C@H]3C[C@@H](C(=O)N[C@@H](CCCNC(=N)N)C(=O)N[C@H]4C[C@@H](C(=O)NCCN)N(CCCN)C4)N(CCCN)C3)N(CCCN)C2)N(CCCN)C1 (Ac-FG[X1]KKR[X1]Q[X1]R[X1]-Ethylenediamine)
IC50 [1]: 2.8 µM
MIC [1]: 12 µM (≈ 20.2 µg/mL)
IC50 [2]: 1.08 µM
MIC [2]: 6.6 µM (≈ 11.1 µg/mL)

CO[C@H]1/C=C/O[C@@]2(C)Oc3c(C)c(O)c4c(O)c(c(/C=N/N5CCN(C)CC5)c(O)c4c3C2=O)NC(=O)/C(C)=C\C=C\[C@H](C)[C@H](O)[C@@H](C)[C@@H](O)[C@@H](C)[C@H](OC(C)=O)[C@@H]1C [RIFAMPIN]
MIC [1]: > 12.1 µM
MIC [2]: > 12.1 µM

CC(=O)N[C@@H](Cc1ccccc1)C(=O)NCC(=O)N1C[C@@H](NC(=N)N)C[C@H]1C(=O)N[C@@H](CCCCN)C(=O)N[C@@H](CCCCN)C(=O)N[C@@H](CCCNC(=N)N)C(=O)N1C[C@@H](NC(=N)N)C[C@H]1C(=O)N[C@@H](CCC(N)=O)C(=O)N[C@@H](CCCNC(=N)N)C(=O)N[C@@H](CCCNC(=N)N)C(=O)N1C[C@@H](NC(=N)N)C[C@H]1C(=O)NCCC(N)=O (Ac-FG[Pro(cis-4-guanidino)]KKR[Pro(cis-4-guanidino)]QRR[Pro(cis-4-guanidino)][βAla]-NH2)
IC50 [1]: 1.32 µM
MIC [1]: 15 µM (≈ 24.7 µg/mL)
IC50 [2]: 0.5 µM
MIC [2]: 6 µM (≈ 9.9 µg/mL)

CC(=O)N[C@@H](Cc1ccccc1)C(=O)NCC(=O)N[C@@H](CCCNC(=N)N)C(=O)N[C@@H](CCCCN)C(=O)N[C@@H](CCCCN)C(=O)N[C@H]1C[C@@H](C(=O)N[C@@H](CCCNC(=N)N)C(=O)N[C@@H](CCC(N)=O)C(=O)N[C@@H](CCCNC(=N)N)C(=O)N[C@@H](CCCNC(=N)N)C(=O)N[C@@H](CCCNC(=N)N)C(=O)NCCC(N)=O)N(CCCNC(=N)N)C1 (Ac-FGRKK[Pro(N-(CH2)3Gua,cis-4-NH-)]RQRRR[βAla]-NH2)
IC50 [1]: 2 µM
MIC [1]: 13 µM (≈ 22.2 µg/mL)
IC50 [2]: 1.1 µM
MIC [2]: 10.6 µM (≈ 18.1 µg/mL)

CC(=O)N[C@@H](Cc1ccccc1)C(=O)NCC(=O)N[C@@H](CCCNC(=N)N)C(=O)N[C@@H](CCCCN)C(=O)N[C@@H](CCCCN)C(=O)N[C@@H](CCCNC(=N)N)C(=O)N[C@@H](CCCNC(=N)N)C(=O)N[C@@H](CCC(N)=O)C(=O)N[C@@H](CCCNC(=N)N)C(=O)N[C@@H](CCCNC(=N)N)C(=O)N1C[C@@H](NC(=N)N)C[C@H]1C(=O)NCCC(N)=O (Ac-FGRKKRRQRR[Pro(cis-4-guanidino)][βAla]-NH2)
IC50 [1]: 3.1 µM
MIC [1]: 22.5 µM (≈ 37.2 µg/mL)
IC50 [2]: 3.1 µM
MIC [2]: 12.9 µM (≈ 21.3 µg/mL)

CC(=O)N[C@@H](Cc1ccccc1)C(=O)NCC(=O)N[C@H]1C[C@@H](C(=O)N[C@@H](CCCCN)C(=O)N[C@@H](CCCCN)C(=O)N[C@@H](CCCNC(=N)N)C(=O)N[C@H]2C[C@@H](C(=O)N[C@@H](CCC(N)=O)C(=O)N[C@@H](CCCNC(=N)N)C(=O)N[C@@H](CCCNC(=N)N)C(=O)N[C@H]3C[C@@H](C(=O)NCCC(N)=O)N(CCCN)C3)N(CCCN)C2)N(CCCN)C1 (Ac-FG[X1]KKR[X1]QRR[X1][βAla]-NH2)
IC50 [1]: 2.6 µM
MIC [1]: 23.5 µM (≈ 39.8 µg/mL)
IC50 [2]: 1.46 µM
MIC [2]: 14 µM (≈ 23.7 µg/mL)

CC(=O)N[C@@H](Cc1ccccc1)C(=O)NCC(=O)N1C[C@@H](NC(=N)N)C[C@H]1C(=O)N[C@@H](CCCCN)C(=O)N[C@@H](CCCCN)C(=O)N[C@@H](CCCNC(=N)N)C(=O)N1C[C@@H](NC(=N)N)C[C@H]1C(=O)N[C@@H](CCC(N)=O)C(=O)N1C[C@@H](NC(=N)N)C[C@H]1C(=O)N[C@@H](CCCNC(=N)N)C(=O)N1C[C@@H](NC(=N)N)C[C@H]1C(=O)NCCC(N)=O (Ac-FG[Pro(cis-4-guanidino)]KKR[Pro(cis-4-guanidino)]Q[Pro(cis-4-guanidino)]R[Pro(cis-4-guanidino)][βAla]-NH2)
IC50 [1]: 10.8 µM
MIC [1]: 26.4 µM (≈ 43.5 µg/mL)
IC50 [2]: 1.9 µM
MIC [2]: 21.5 µM (≈ 35.4 µg/mL)

CC(=O)N[C@@H](Cc1ccccc1)C(=O)NCC(=O)N[C@H]1C[C@@H](C(=O)N[C@@H](CCCCN)C(=O)N[C@@H](CCCCN)C(=O)N[C@@H](CCCNC(=N)N)C(=O)N[C@H]2C[C@@H](C(=O)N[C@@H](CCC(N)=O)C(=O)N[C@H]3C[C@@H](C(=O)N[C@@H](CCCNC(=N)N)C(=O)N[C@H]4C[C@@H](C(=O)NCCC(N)=O)N(CCCNC(=N)N)C4)N(CCCNC(=N)N)C3)N(CCCNC(=N)N)C2)N(CCCNC(=N)N)C1
IC50 [1]: 3.1 µM
MIC [1]: 24.6 µM (≈ 46.2 µg/mL)
IC50 [2]: 2.36 µM
MIC [2]: 11.7 µM (≈ 22 µg/mL)

NC(=O)c1cnccn1 [PYRAZINAMIDE]
MIC [1]: > 100 µM
MIC [2]: > 100 µM
